One assay concerns HCT116. Briefly: Cytotoxicity, propidium iodide assay, HCT116. The class given is cell-based. The note with it: Homo sapiens, HCT-116; Colon, HCT116, 48 hours treatment; read-out: IC50, C4a (HCT116). On the procedure: (§1) The assay was designed as in the reference, Anticancer Drugs, 2002, 13, 1-8, the disclosure of which is incorporated by reference for the teaching of the assay.
(§2) Cells from cell lines as mentioned in the table given below were seeded at a density of 3000 cells/well in a white opaque 96-well plate. Following incubation at 37° C./5% CO2 for a period of 18-24 hours, the cells were treated with various concentrations (stock solution was prepared in DMSO and subsequent dilutions were made in media as per ATCC guidelines) of the compounds of Example 1-40 was for a period of 48 hours. At the end of treatment, the spent culture medium was discarded, the cells were washed with 1×PBS and 200 μl of 7 μg/ml propidium iodide was added to each well. The plates were frozen at −70° C. for at least 24 hours. For analysis, the plates were brought to RT, allowed to thaw and were read in PoleStar fluorimeter with the fluorescence setting. The percentage of viable cells in the non-treated set of wells was considered to be 100 and the percentage viability following treatment was calculated accordingly. IC50 values were calculated from graphs plotted using these percentages. Table 4 depicts the IC50 values of compounds of Example 1-40 in individual cell lines.
(§3) The abbreviations for the Cell Lines as used in Table 4 are: […]

A further assay relates to A549. Briefly: Cytotoxicity, propidium iodide assay, A549. Format: cell-based. The settings on record: Homo sapiens; Lung, A549, 48 hours treatment; read-out: IC50, C1a (A549). On the procedure: as §1, §2, §3
For another assay, the system named is OVCAR 3. Kind of assay: Cytotoxicity, propidium iodide assay, OVCAR 3. The note with it: Homo sapiens; Ovarian, OVCAR 3, 48 hours treatment; read-out: IC50, C3b (OVCAR 3). The class given is cell-based. On the procedure: as §1, §2, §3
A further assay deals with U 373. Briefly: Cytotoxicity, propidium iodide assay, U 373. The class given is cell-based. The note with it: Homo sapiens, U373 MG; Glioblastoma, U 373, 48 hours treatment; read-out: IC50, C7a (U 373). The protocol:
as §1, §2, §3

Another assay has as its system U 87 MG. Briefly: Cytotoxicity, propidium iodide assay, U 87 MG. Format: cell-based. The settings on record: Homo sapiens, Glioblastoma, 48 hours treatment, read-out: IC50, C7b (U 87 MG). On the procedure: as §1, §2, §3
A further assay deals with IL-6. Briefly: Human monocyte assay, LPS-stimulated IL-6 (ELISA). The class given is cell-based. The settings on record: human monocytes, 1 μg/ml LPS, 5 hours. The protocol:
The assay was designed as in the reference, Physiol. Res., 2003, 52, 593-598, the disclosure of which is incorporated by reference for the teaching of the assay.
Peripheral blood mononuclear cells (hPBMC) were harvested from human blood and suspended in RPMI 1640 culture medium containing 10% FCS, 100 U/mL penicillin and […] streptomycin (assay medium). Monocytes in the hPBMCs were counted using a Coulter Counter following which the cells were resuspended at 2×10^5 monocytes/mL. A cell suspension containing 2×10^4 monocytes was aliquoted per well of a 96-well plate. Subsequently, the hPBMCs were incubated for 4-5 hours at 37° C. under 5% CO2 (During the incubation, the monocytes adhered to the bottom of 96-well plastic culture plate). Following the incubation, the non-adherent lymphocytes were washed with assay medium and the adherent monocytes re-fed with assay medium. After a 48-hour incubation period (37° C., 5% CO2), monocytes were pretreated with various concentrations of compounds of Example 1-40 (prepared in DMSO) or vehicle (0.5% DMSO) for 30 minutes and stimulated with 1 μg/ml LPS (Escherchia coli 0111:B4, Sigma Chemical Co., St. Louis, Mo.). The incubation was continued for 5 hours at 37° C., 5% CO2. Supernatants were harvested, assayed for IL-6 and TNF-α by ELISA as described by the manufacturer (BD Biosciences, USA). Dexamethasone (10 μM) was used as standard for this assay. The 50% inhibitory concentration (IC50) values were calculated by a nonlinear regression method. In all experiments, a parallel plate was run to ascertain the toxicity of compounds of Example 1-40. The toxicity was determined using the MTS assay as described in Am. J. Physiol. Cell Physiol., 2003, 285, C813-C822.
Background: In an ELISA, binding on a coated surface is turned into a signal by an enzyme label.

For a further assay, the system named is H460. Briefly: Cytotoxicity, propidium iodide assay, H460. Format: cell-based. The note with it: Homo sapiens, NCI-H460; Lung, H460, 48 hours treatment; read-out: IC50, C1b (H460). On the procedure: as §1, §2, §3
The next assay deals with PC3. Kind of assay: Cytotoxicity, propidium iodide assay, PC3. The class given is cell-based. The settings on record: Homo sapiens, PC-3; Prostate, PC3, 48 hours treatment; read-out: IC50, C2a (PC3). The protocol:
as §1, §2, §3

The next assay deals with A2780. Kind of assay: Cytotoxicity, propidium iodide assay, A2780. The class given is cell-based. The note with it: Homo sapiens; Ovarian, A2780, 48 hours treatment; read-out: IC50, C3a (A2780). On the procedure: as §1, §2, §3
The next assay deals with PANC 1. Briefly: Cytotoxicity, propidium iodide assay, PANC 1. The class given is cell-based. The note with it: Homo sapiens; Pancreatic, PANC 1, 48 hours treatment; read-out: IC50, C5a (PANC 1). On the procedure: as §1, §2, §3
Another assay deals with T1, PI3Kα kinase (Homo sapiens, UniProt P42336).
T1 construct: purchased Millipore, USA
T1 sequence (P42336 whole entry): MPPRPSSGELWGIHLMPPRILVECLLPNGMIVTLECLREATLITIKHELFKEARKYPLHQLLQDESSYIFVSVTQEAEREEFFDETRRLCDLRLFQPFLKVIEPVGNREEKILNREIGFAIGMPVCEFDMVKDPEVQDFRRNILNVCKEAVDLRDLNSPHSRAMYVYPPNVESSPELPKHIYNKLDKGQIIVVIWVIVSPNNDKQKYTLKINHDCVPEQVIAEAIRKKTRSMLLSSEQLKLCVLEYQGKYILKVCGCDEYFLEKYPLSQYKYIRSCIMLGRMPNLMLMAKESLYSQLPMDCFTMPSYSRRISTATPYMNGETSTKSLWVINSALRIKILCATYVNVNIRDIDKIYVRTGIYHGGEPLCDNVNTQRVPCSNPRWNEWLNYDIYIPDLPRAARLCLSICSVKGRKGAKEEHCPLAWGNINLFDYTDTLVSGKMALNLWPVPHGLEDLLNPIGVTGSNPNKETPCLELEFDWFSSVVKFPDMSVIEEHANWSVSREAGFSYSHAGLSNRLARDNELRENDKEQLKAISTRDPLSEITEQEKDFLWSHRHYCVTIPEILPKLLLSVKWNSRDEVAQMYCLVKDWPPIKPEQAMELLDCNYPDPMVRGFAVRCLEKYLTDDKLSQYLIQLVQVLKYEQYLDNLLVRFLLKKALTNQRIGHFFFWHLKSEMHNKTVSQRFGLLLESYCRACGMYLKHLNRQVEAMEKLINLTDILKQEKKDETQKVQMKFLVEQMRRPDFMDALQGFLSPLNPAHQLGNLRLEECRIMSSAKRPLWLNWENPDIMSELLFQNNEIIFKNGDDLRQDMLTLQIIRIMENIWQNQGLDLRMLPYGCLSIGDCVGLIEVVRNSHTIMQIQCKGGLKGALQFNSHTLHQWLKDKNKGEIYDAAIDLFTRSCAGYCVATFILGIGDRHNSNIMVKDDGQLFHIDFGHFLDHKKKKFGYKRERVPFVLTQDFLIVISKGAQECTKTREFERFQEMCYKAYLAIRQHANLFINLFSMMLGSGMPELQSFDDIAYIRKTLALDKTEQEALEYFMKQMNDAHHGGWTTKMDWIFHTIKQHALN
T1 sequence (P27986 whole entry partner): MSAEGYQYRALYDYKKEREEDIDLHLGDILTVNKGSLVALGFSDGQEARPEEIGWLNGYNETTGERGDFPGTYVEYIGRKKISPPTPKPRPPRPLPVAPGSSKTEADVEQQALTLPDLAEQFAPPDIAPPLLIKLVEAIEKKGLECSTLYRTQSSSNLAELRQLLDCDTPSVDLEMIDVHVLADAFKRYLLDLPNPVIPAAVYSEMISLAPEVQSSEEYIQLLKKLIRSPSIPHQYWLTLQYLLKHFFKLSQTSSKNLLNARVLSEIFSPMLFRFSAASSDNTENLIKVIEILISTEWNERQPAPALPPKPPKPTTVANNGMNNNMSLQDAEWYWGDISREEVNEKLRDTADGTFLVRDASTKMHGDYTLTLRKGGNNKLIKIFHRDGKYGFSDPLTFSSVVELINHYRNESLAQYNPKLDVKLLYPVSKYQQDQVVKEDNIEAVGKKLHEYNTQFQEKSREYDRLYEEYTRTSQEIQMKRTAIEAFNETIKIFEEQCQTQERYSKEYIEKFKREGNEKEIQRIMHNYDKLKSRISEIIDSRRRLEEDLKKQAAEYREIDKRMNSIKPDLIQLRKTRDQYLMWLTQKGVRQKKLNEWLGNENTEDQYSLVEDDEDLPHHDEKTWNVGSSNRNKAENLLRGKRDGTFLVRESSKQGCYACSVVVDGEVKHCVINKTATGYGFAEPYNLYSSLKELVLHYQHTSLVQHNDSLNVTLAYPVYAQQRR
Kind of assay: PI3Kα assay (32P incorporation into phosphatidylinositol, TLC densitometry). Format: biochemical. The note with it: At 100 nM. The protocol: The assay was designed as in the reference, Cell, 2006, 125, 733-47 (Supplemental Data), the disclosure of which is incorporated by reference for the teaching of the assay.
The kinase reaction was carried out in a 25 μL volume in a 1.5 mL microcentrifuge tube. The reaction mixture consisted of kinase buffer (10 mM Hepes, pH 7.5, 50 mM MgCl2), 20 ng PI3Kα kinase (Millipore, USA), 12.5 μg phosphatidylinositol (PI), 10 μM ATP and 1 μCi ^32γ P dATP. Compounds of Example 1-40 were added at concentrations (stock solution was prepared in DMSO and subsequent dilutions were made in kinase buffer) as mentioned in the table. The reaction mixture was incubated at 30° C. for 20 minutes and was terminated by adding 1:1 mixture of MeOH and chloroform. The tube contents were mixed on a vortex mixer and centrifuged at 10000 rpm for 2 minutes. 10 μL of the organic (lower) phase was spotted on to a TLC plate (silica, mobile phase: n-propanol and 2 M glacial acetic acid in 65:35 ratio). The plates were dried and exposed to an X-ray film. The bands appearing as a result of ^32γ P incorporation in PI were quantitated using the QuantityOne (BioRad, USA) densitometry program. PI-103 (Calbiochem, USA) was used as a standard.

As a reminder, the IC50 is the point on the concentration scale where inhibition reaches its midpoint. The inhibition is the share of the control response that was lost under treatment.

For `Cc1ccc([N+](=O)[O-])cc1S(=O)(=O)n1c(=O)n(-c2ccc(C(C)(C)C#N)cc2)c2c3cc(Br)ccc3ncc21` [Example 4, 2-(4-(8-Bromo-3-(2-methyl-5-nitrophenylsulfonyl)-2-oxo-2,3-dihydro-1H-imidazo[4,5-c]quinolin-1-yl)phenyl)-2-methylpropanenitrile], the IC50 in the assay on HCT116 was more than 3000 nM; in the assay on A549, 1000 to 3000 nM; in the assay on OVCAR 3, more than 3000 nM; with U 373 it was more than 3000 nM; in the assay on U 87 MG, 1000 to 3000 nM; in the assay with IL-6 it was 1 to 10 µM. The 50% inhibitory concentration (IC50) with H460 and in the assay on PC3 was 1000 to 3000 nM in each case.

As to `Cc1ccc(S(=O)(=O)n2c(=O)n(-c3ccc(C(C)(C)C#N)cc3)c3c4cc(Br)ccc4ncc32)cc1F` [Example 5, 2-(4-(8-Bromo-3-(3-fluoro-4-methylphenylsulfonyl)-2-oxo-2,3-dihydro-1H-imidazo[4,5-c]quinolin-1-yl)phenyl)-2-methylpropanenitrile], the IC50 was more than 3000 nM in the assay on HCT116; 1000 to 3000 nM in the assay on A549; more than 3000 nM with OVCAR 3; more than 3000 nM in the assay on U 373; 1000 to 3000 nM with U 87 MG; 1000 to 3000 nM in the assay with H460. Besides, the IC50 in the assay with PC3 was 1000 to 3000 nM.

Take `CC(C)(C#N)c1ccc(-n2c(=O)n(S(=O)(=O)c3cccc(F)c3)c3cnc4ccc(Br)cc4c32)cc1` [Example 10, 2-(4-(8-Bromo-3-(3-fluorophenylsulfonyl)-2-oxo-2,3-dihydro-1H-imidazo[4,5-c]quinolin-1-yl)phenyl)-2-methylpropanenitrile]: the IC50 was 1000 to 3000 nM in the assay with HCT116; 1000 to 3000 nM in the assay on A549; 1000 to 3000 nM with A2780; more than 3000 nM in the assay with PANC 1; more than 30 µM with IL-6.

On to `CC(C)(C#N)c1ccc(-n2c(=O)n(S(=O)(=O)c3cccc4cccnc34)c3cnc4ccc(Br)cc4c32)cc1` [Example 11, 2-(4-(8-Bromo-2-oxo-3-(quinolin-8-ylsulfonyl)-2,3-dihydro-1H-imidazo[4,5-c]quinolin-1-yl)phenyl)-2-methylpropanenitrile], for which the IC50 in the assay with HCT116 was more than 3000 nM; with A549, more than 3000 nM; with A2780, more than 3000 nM; in the assay with PANC 1 it was more than 3000 nM; in the assay on IL-6, more than 30 µM.

For `CC(C)(C#N)c1ccc(-n2c(=O)n(S(=O)(=O)c3cccc(C(F)(F)F)c3)c3cnc4ccc(Br)cc4c32)cc1` [Example 13, 2-(4-(8-Bromo-2-oxo-3-(3-(trifluoromethyl)phenylsulfonyl)-2,3-dihydro-1H-imidazo[4,5-c]quinolin-1-yl)phenyl)-2-methylpropanenitrile], the IC50 in the assay with HCT116, with A549, in the assay with OVCAR 3, in the assay on U 373, with U 87 MG and with H460 was more than 3000 nM in each case. Further, in the assay on PC3, the IC50 was more than 3000 nM. On PI3Kα kinase, this compound showed an inhibition at 0.1 µM of 10 to 50%.

Take `CC(C)(C#N)c1ccc(-n2c(=O)n(S(=O)(=O)c3cccc(Br)c3)c3cnc4ccc(Br)cc4c32)cc1` [Example 15, 2-(4-(8-Bromo-3-(3-bromophenylsulfonyl)-2-oxo-2,3-dihydro-1H-imidazo[4,5-c]quinolin-1-yl)phenyl)-2-methylpropanenitrile]: the IC50 in the assay on HCT116 was 1000 to 3000 nM; with A549, more than 3000 nM; with A2780 it was more than 3000 nM; in the assay on PANC 1, more than 3000 nM; in the assay on IL-6 it was 1 to 10 µM.

With `CC(=O)n1c(=O)n(-c2ccc(C(C)(C)C#N)cc2)c2c3cc(Cl)ccc3ncc21` [Example 36, 2-(4-(3-Acetyl-8-chloro-2-oxo-2,3-dihydro-1H-imidazo[4,5-c]quinolin-1-yl)phenyl)-2-methylpropanenitrile], the IC50 in the assay with HCT116 was more than 3000 nM; in the assay on A549 it was 1000 to 3000 nM; with OVCAR 3 it was more than 3000 nM; in the assay with U 373, more than 3000 nM; with U 87 MG, more than 3000 nM; with H460, not above 1000 nM. Further, in the assay with PC3, the IC50 is more than 3000 nM. In addition, the inhibition at 0.1 µM on PI3Kα kinase was in the range of 10 to 50%.

These data come from US8637670B2, “Imidazo [4,5-C]quinoline derivatives and their use in the treatment of tumors and/or inflammation” (Piramal Enterprises Limited, priority 2009, dated 2014).
